Laboratory results from patent US11971413B2, “Peptoid, and its preparation method and use” (BEIJING BOE TECHNOLOGY DEVELOPMENT CO., LTD., priority 2019, dated 2024).
Where a SMILES comes first, the peptide text is derived from it. [ ]: non-standard residue; d: D form. ξ: configuration not given here. N(CH2CH2COOH)Gly = O=C(O)CCNCC(=O)O; Gly(N-CH2CH2OH) = O=C(O)CNCCO; Nleu = CC(C)CNCC(=O)O; Nlys = NCCCCNCC(=O)O; ξC = NC(CS)C(=O)O

Columns and labels:
[1] = tested on: human embryonic kidney 293T cell line with low expression of EpCAM; test: Cell-level imaging with fluorescently labeled peptoid molecular probe, laser confocal microscopy, 293T control cells; type: cell-based; conditions: 293T cells (low EpCAM, control group), probe incubated at 4° C. for 30 min, confocal 100× oil objective
Procedure: (§1) The specific steps for cell-level imaging using a fluorescently labeled molecular probe with a peptoid were as follows: • (1) Cell culture and passage: The cell models were an Huh7 cell line with high expression of an EpCAM protein and a human embryonic kidney 293T cell line with low expression of EpCAM (Shanghai Biological Technology Co., Ltd. enzyme research); Huh7 and 293T cells were cultured in a constant temperature incubator (5% CO2) at 37° C. with RPMI1640 medium and DMEM/High glucose medium containing 10% fetal bovine serum and 1% penicillin and streptomycin, respectively; • (2) When the degree of cell fusion reached more than 90%, the cells were passaged. […]

[2] = tested on: Huh7 cell line with high expression of an EpCAM protein; test: Cell-level imaging with fluorescently labeled peptoid molecular probe, laser confocal microscopy, Huh7 cells; type: cell-based; conditions: probe incubated at 4° C. for 30 min, confocal 100× oil objective
Procedure: as §1

Compound: CC(C)CNCC(=O)N(CCCCN)CC(=O)N(CCO)CC(=O)N(CCC(=O)O)CC(=O)N(CCCCN)CC(=O)N(CCCCN)CC(=O)NC(CS)C(N)=O (centres unmarked) [Example 1] (H-[Nleu][Nlys][Gly(N-CH2CH2OH)][N(CH2CH2COOH)Gly][Nlys][Nlys][ξC]-NH2)
- FITC green fluorescence on the cell membrane [1]: weak green fluorescence or no green fluorescence
- FITC green fluorescence on the cell membrane [2]: Significant green fluorescence
